The values that follow are results of earlier work, collected in US8895065B2, “Single unit oral dose pharmaceutical composition comprising levodopa, carbidopa and entacapone or salts thereof” (Wockhardt Ltd., priority 2008, dated 2014).

On to `N[C@@H](Cc1ccc(O)c(O)c1)C(=O)O` [Levodopa, (−)-L-α-amino-β-(3,4-dihydroxybenzene)propanoic acid], for which the solubility in water result is listed as “slightly soluble”. As to `C[C@@](Cc1ccc(O)c(O)c1)(NN)C(=O)O` [Carbidopa], the solubility in water entry is recorded as “slightly soluble”.
